Values quoted from earlier work, collected in patent US11040008B2, “Pharmaceutical compositions of meloxicam” (Slayback Pharma LLC, priority 2018, dated 2021).

Key:
[1] = oral, fasted steady state conditions

Time of second meloxicam concentration peak post-dose [1]: twelve to fourteen | Solubility in water: practically insoluble in water
Compound: Cc1cnc(NC(=O)C2=C(O)c3ccccc3S(=O)(=O)N2C)s1 [meloxicam, 4-hydroxy-2-methyl-N-(5-methyl-2-thiazolyl)-2H-1,2-benzothiazine-3-carboxamide-1,1-dioxide]
